The text below walks through data of patent US10457654B2 (GENENTECH, INC., priority 2017, dated 2019).

Each structure is given as a SMILES string. Counter-ions that a name gives are not always drawn.

Experiment [1] deals with T1, hNav1.7 (Homo sapiens (Human), UniProt Q15858). Briefly: Tritiated compound binding to membranes from cells expressing hNav1.7 and the β1 subunit, modified protocol (LBA, Ex. 243B). The note with it: 300 pM [3H]compound, room temperature, read-out: Nav1.7 LBA (Ex. 243B) IC50.
Target sequence in this assay (Q15858 whole entry, looked up): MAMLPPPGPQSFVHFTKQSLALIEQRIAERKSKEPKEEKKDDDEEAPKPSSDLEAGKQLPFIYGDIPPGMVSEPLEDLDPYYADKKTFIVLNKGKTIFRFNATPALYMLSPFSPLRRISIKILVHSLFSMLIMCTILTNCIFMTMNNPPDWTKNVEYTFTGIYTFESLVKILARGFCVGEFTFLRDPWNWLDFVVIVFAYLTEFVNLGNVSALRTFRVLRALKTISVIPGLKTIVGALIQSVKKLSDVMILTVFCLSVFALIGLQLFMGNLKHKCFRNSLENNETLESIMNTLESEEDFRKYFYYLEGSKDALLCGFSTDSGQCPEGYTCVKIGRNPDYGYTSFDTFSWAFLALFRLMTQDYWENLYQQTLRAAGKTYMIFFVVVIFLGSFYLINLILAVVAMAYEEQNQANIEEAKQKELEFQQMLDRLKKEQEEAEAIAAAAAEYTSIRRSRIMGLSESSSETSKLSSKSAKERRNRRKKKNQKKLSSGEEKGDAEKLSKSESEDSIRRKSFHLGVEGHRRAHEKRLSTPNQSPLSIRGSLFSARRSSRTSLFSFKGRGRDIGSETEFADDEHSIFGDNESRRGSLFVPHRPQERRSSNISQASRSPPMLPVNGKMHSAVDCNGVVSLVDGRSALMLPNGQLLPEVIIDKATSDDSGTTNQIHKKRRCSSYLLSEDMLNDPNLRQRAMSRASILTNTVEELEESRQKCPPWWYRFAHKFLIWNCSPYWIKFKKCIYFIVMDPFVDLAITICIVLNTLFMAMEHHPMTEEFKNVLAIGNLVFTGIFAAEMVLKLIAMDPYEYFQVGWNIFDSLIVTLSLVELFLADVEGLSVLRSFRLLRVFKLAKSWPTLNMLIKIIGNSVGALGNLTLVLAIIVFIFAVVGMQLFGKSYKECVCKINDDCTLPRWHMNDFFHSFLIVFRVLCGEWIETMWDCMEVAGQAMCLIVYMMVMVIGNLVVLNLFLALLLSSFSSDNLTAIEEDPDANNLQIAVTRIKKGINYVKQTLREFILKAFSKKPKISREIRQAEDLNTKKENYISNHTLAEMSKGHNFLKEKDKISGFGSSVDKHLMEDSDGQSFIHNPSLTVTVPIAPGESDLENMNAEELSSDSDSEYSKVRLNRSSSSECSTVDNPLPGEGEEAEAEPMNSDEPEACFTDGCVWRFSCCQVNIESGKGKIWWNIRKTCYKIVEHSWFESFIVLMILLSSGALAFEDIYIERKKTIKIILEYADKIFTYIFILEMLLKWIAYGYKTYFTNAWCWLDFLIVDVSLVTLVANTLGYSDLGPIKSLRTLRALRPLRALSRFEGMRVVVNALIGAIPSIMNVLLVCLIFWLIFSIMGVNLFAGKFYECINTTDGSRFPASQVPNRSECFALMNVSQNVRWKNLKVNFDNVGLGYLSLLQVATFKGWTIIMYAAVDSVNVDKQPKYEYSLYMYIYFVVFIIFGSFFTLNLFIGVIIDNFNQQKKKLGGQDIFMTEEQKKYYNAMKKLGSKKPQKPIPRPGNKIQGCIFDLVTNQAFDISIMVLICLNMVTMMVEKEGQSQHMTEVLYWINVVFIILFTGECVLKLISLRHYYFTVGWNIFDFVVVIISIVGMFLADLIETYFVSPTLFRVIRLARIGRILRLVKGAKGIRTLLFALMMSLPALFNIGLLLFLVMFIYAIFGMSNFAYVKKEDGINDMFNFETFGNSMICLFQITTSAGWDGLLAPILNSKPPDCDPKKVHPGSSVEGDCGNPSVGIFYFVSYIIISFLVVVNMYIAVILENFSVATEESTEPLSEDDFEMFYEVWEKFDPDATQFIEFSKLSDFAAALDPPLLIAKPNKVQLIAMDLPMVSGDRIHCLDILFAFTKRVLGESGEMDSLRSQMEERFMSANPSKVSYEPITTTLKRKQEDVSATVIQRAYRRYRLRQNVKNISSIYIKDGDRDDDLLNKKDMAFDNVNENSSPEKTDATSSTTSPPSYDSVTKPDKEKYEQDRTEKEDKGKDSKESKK
Target sequence in this assay (Q07699 whole entry partner, looked up): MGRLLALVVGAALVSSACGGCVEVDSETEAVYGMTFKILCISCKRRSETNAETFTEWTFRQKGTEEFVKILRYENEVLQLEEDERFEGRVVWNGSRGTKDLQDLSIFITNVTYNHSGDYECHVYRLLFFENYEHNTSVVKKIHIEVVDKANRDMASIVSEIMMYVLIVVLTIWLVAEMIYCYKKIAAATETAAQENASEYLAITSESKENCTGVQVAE
In experiment [2] the target is T1, hNav1.7. Briefly: Patch voltage clamp electrophysiology assay (EP), Syncropatch 384PE, CHO cells expressing Nav1.7. Format: cell-based. The note with it: holding potential -50 mV; […] compound incubation; read-out: EP_SP hNav1.7 (Ex. 243B) IC50. A digest of the protocol:
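Automated whole-cell patch clamp on CHO cells stably expressing human Nav1.7, CsCl/EGTA internal and NMDG/80 mM Na+ external (pH 7.4). From −50 mV holding, −10 mV step, 20 ms recovery at −150 mV, then second −10 mV pulse where block is measured; inhibition after 7.5 min compound incubation.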
Target sequence in this assay (Q15858 other isoform, or with tags, fused parts or gaps): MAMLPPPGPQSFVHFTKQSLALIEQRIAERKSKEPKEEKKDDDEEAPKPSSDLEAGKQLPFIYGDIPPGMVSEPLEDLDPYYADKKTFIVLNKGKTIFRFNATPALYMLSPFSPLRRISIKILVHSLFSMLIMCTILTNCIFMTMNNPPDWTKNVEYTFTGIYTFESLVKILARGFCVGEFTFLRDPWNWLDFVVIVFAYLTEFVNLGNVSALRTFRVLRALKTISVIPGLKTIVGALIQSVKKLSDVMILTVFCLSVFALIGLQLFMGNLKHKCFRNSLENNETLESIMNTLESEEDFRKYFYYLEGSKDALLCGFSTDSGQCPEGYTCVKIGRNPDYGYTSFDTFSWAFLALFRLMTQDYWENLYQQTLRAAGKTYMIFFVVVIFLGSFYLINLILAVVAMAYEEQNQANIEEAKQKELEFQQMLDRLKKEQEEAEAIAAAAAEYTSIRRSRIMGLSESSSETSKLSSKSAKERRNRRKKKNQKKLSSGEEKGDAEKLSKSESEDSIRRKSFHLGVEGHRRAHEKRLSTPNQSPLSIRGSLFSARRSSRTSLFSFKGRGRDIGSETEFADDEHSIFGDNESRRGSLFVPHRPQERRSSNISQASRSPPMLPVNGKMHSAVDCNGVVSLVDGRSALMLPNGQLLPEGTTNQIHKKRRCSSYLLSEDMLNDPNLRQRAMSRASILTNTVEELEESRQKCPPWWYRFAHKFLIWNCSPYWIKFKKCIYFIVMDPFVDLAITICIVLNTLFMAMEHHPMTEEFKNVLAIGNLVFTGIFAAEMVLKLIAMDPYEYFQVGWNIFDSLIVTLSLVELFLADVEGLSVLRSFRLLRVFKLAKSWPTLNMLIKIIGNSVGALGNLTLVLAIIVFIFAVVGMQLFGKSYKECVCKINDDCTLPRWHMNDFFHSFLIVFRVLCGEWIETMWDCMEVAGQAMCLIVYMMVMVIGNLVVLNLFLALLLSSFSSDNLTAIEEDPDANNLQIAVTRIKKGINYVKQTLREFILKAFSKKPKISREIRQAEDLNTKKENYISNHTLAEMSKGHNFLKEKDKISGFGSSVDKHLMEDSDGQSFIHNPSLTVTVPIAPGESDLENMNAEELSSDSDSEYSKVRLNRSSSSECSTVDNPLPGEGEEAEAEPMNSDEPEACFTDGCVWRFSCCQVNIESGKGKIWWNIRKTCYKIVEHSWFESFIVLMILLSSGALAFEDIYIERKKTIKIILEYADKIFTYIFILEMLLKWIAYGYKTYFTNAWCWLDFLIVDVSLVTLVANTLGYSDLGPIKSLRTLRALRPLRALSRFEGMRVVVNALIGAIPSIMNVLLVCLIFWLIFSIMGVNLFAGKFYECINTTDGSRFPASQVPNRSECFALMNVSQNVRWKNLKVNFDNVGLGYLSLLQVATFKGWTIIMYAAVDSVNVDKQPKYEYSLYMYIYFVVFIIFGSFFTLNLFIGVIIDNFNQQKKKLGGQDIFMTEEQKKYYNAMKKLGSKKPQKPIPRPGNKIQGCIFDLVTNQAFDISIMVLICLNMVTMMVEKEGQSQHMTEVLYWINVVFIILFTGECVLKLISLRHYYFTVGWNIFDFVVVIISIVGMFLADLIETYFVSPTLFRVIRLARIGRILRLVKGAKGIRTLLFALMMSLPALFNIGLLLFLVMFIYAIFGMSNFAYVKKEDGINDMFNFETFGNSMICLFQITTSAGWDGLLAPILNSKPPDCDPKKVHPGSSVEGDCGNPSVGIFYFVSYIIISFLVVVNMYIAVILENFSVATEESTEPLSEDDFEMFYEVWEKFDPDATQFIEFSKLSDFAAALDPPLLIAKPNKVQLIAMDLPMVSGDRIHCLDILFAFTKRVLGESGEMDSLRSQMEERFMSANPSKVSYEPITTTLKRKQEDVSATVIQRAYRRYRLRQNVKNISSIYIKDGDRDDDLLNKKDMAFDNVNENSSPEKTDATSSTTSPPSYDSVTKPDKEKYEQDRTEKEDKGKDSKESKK
On the technique in general: Patch clamp records ionic current or voltage across a cell membrane.

For orientation: IC50 means the concentration at which inhibition is half-maximal. For the compound `CN(C[C@@H](O)C1CC1)[C@H]1CCCC[C@@H]1Nc1cc(F)c(S(=O)(=O)Nc2nccs2)cc1Cl` [Example 139, 5-Chloro-4-(((1S,2S)-2-(((S)-2-cyclopropyl-2-hydroxyethyl)(methyl)amino)cyclohexyl)amino)-2-fluoro-N-(thiazol-2-yl)benzenesulfonamide], the IC50 at hNav1.7 [1] came to 291 nM; at hNav1.7 [2] it was 45.6 nM.

As to `CN(C)[C@H]1C[C@@H](c2cccc(C(F)(F)F)c2)CC[C@@H]1Nc1cc(F)c(S(=O)(=O)Nc2ccon2)cc1Cl` [Example 228, 5-chloro-4-(((1S,2S,4S)-2-(dimethylamino)-4-(3-(trifluoromethyl)phenyl)cyclohexyl)amino)-2-fluoro-N-(isoxazol-3-yl)benzenesulfonamide], the IC50 on hNav1.7 [1] came out at 5.78 nM; at hNav1.7 [2], 0.846 nM.

Take `CN(C)[C@H]1CCCCC[C@@H]1Nc1cc(F)c(S(=O)(=O)Nc2nccs2)cc1Cl` [Example 144, 5-chloro-4-(((1S,2S)-2-(dimethylamino)cycloheptyl)amino)-2-fluoro-N-(thiazol-2-yl)benzenesulfonamide formate]: the values for the IC50 on hNav1.7 [1] and at hNav1.7 [2] were 374 nM and 25.8 nM, respectively.

`CN(C)[C@H]1C[C@@H](c2cccc(OC(F)(F)F)c2)CC[C@@H]1Nc1cc(F)c(S(=O)(=O)Nc2ccncn2)cc1Cl` [Example 225, 5-Chloro-4-(((1S,2S,4S)-2-(dimethylamino)-4-(3-(trifluoromethoxy)phenyl)cyclohexyl)amino)-2-fluoro-N-(pyrimidin-4-yl)benzenesulfonamide]: the half-maximal inhibitory concentration (IC50) came to 0.643 nM at hNav1.7 [1] and 0.651 nM at hNav1.7 [2].

For the compound `CN(C[C@H](O)C1CC1)[C@H]1CCCC[C@@H]1Nc1cc(F)c(S(=O)(=O)Nc2nccs2)cc1Cl` [Example 143, 5-Chloro-4-(((1S,2S)-2-(((R)-2-cyclopropyl-2-hydroxyethyl)(methyl)amino)cyclohexyl)amino)-2-fluoro-N-(thiazol-2-yl)benzenesulfonamide], the results for the IC50 on hNav1.7 [1] and on hNav1.7 [2] were 418 nM and 19.3 nM, respectively.

`O=S(=O)(Nc1ccncn1)c1cc(Cl)c(N[C@H]2CCCC[C@@H]2N2CC3CC3C2)cc1F` (stereo partly drawn) [Example 151, 4-(((1S,2S)-2-(3-azabicyclo[3.1.0]hexan-3-yl)cyclohexyl)amino)-5-chloro-2-fluoro-N-(pyrimidin-4-yl)benzenesulfonamide]: the half-maximal inhibitory concentration (IC50) at hNav1.7 [1] came out at 181 nM; at hNav1.7 [2], 20.1 nM.

As to `CN(C)[C@H]1CCC(c2cccc(C(F)(F)F)c2)C[C@@H]1Nc1cc(F)c(S(=O)(=O)Nc2ccncn2)cc1Cl` (stereo in doubt) [Example 120, 5-chloro-4-(((1S,2S,5R)-2-(dimethylamino)-5-(3-(trifluoromethyl)phenyl)cyclohexyl)amino)-2-fluoro-N-(pyrimidin-4-yl)benzenesulfonamide], the IC50 at hNav1.7 [1] stood at 26.3 nM; on hNav1.7 [2] it was 4.1 nM.

On to `CC(=O)N1CC(N(C)[C@H]2CCCC[C@@H]2Nc2cc(F)c(S(=O)(=O)Nc3nccs3)cc2Cl)C1` [Example 148, 4-(((1S,2S)-2-((1-Acetylazetidin-3-yl)(methyl)amino)cyclohexyl)amino)-5-chloro-2-fluoro-N-(thiazol-2-yl)benzenesulfonamide], for which the IC50 came to 305 nM on hNav1.7 [1] and 25.3 nM on hNav1.7 [2].

For the compound `CN(C)[C@H]1C[C@@H](c2ccccc2)CC[C@@H]1Nc1cc(F)c(S(=O)(=O)Nc2ccncn2)cc1Cl` [Example 232, 5-chloro-4-(((1S,2S,4S)-2-(dimethyamino)-4-phenylcyclohexyl)amino)-2-fluoro-N-(pyrimidin-4-yl)benzenesulfonamide formate], the 50% inhibitory concentration (IC50) at hNav1.7 [1] worked out at 47.8 nM; at hNav1.7 [2], 10.5 nM.

On to `CN(C)[C@H]1CCCC[C@@H]1Oc1cc(F)c(S(=O)(=O)Nc2cccc(F)n2)cc1C1CC1` [Example 114, 5-Cyclopropyl-4-(((1S,2S)-2-(dimethylamino)cyclohexyl)oxy)-2-fluoro-N-(6-fluoropyridin-2-yl)benzenesulfonamide formate], for which the figures for the 50% inhibitory concentration (IC50) on hNav1.7 [1] and at hNav1.7 [2] were 264 nM and 33.1 nM, respectively.

As for `CN1CC[C@H]1C(=O)N(C)[C@H]1CCCC[C@@H]1Nc1cc(F)c(S(=O)(=O)Nc2nccs2)cc1Cl` [Example 202, (S)—N-((1S,2S)-2-((2-chloro-5-fluoro-4-(N-(thiazol-2-yl)sulfamoyl)phenyl)amino)cyclohexyl)-N,1-dimethylazetidine-2-carboxamide], the values for the half-maximal inhibitory concentration (IC50) at hNav1.7 [1] and at hNav1.7 [2] were 245 nM and 34.4 nM, respectively.

As to `CC(=O)N(C)[C@H]1CCCC[C@@H]1Nc1cc(F)c(S(=O)(=O)Nc2nccs2)cc1Cl` [Example 166, N-((1S,2S)-2-((2-Chloro-5-fluoro-4-(N-(thiazol-2-yl)sulfamoyl)phenyl)amino)cyclohexyl)-N-methylacetamide], the IC50 at hNav1.7 [1] amounted to 341 nM; at hNav1.7 [2], 13.9 nM.

In the case of `Cc1nc(NS(=O)(=O)c2cc(Cl)c(N[C@H]3CCCC[C@@H]3N(C)C)cc2F)sc1Cl` [Example 172, 5-Chloro-N-(5-chloro-4-methylthiazol-2-yl)-4-(((1S,2S)-2-(dimethylamino)cyclohexyl)amino)-2-fluorobenzenesulfonamide], the concentration for half-maximal inhibition (IC50) at hNav1.7 [1] was 38.2 nM; on hNav1.7 [2], 12.3 nM.

For the compound `O=S(=O)(Nc1nccs1)c1cc(Cl)c(N[C@H]2CCCC[C@@H]2N2CCC[C@H](CO)C2)cc1F` [Example 168, 5-chloro-2-fluoro-4-(((1S,2S)-2-((S)-3-(hydroxymethyl)piperidin-1-yl)cyclohexyl)amino)-N-(thiazol-2-yl)benzenesulfonamide formate], the IC50 amounted to 40 nM at hNav1.7 [1] and 5.16 nM on hNav1.7 [2].

As for `CN(C)[C@H]1C[C@@H](c2cccc(C(F)(F)F)c2)CC[C@@H]1Nc1cc(F)c(S(=O)(=O)Nc2ccncn2)cc1O` [Example 240, 4-(((1S,2S,4S)-2-(Dimethylamino)-4-(3-(trifluoromethyl)phenyl)cyclohexyl)amino)-2-fluoro-5-hydroxy-N-(pyrimidin-4-yl)benzenesulfonamide formate], the values for the IC50 on hNav1.7 [1] and on hNav1.7 [2] were 15 nM and 2.9 nM, respectively.

As to `CN(CC(O)C(F)F)[C@H]1CCCC[C@@H]1Nc1cc(F)c(S(=O)(=O)Nc2nccs2)cc1Cl` (single isomer, unassigned) [Example 127], the results for the IC50 at hNav1.7 [1] and at hNav1.7 [2] were 61.5 nM and 6.58 nM, respectively.

Consider `O=S(=O)(Nc1cccc(F)n1)c1cc(Cl)c(N[C@H]2CCCC[C@@H]2N2CC3CC3C2)cc1F` (stereo partly drawn) [Example 105, 4-(((1S,2S)-2-(3-azabicyclo[3.1.0]hexan-3-yl)cyclohexyl)amino)-5-chloro-2-fluoro-N-(6-fluoropyridin-2-yl)benzenesulfonamide], for which the values for the 50% inhibitory concentration (IC50) on hNav1.7 [1] and on hNav1.7 [2] were 31.3 nM and 4.5 nM, respectively.

Turning to `CN(C)[C@@H]1CCCCC[C@H]1Nc1cc(F)c(S(=O)(=O)Nc2nccs2)cc1Cl` [Example 145, 5-chloro-4-(((1R,2R)-2-(dimethylamino)cycloheptyl)amino)-2-fluoro-N-(thiazol-2-yl)benzenesulfonamide formate], the IC50 on hNav1.7 [1] came to 2000 nM; at hNav1.7 [2] it was 395 nM.

For `C[N+](C)([O-])[C@H]1C[C@@H](c2cccc(C(F)(F)F)c2)CC[C@@H]1Nc1cc(F)c(S(=O)(=O)Nc2ccncn2)cc1Cl` [Example 235, (1S,2S,5S)-2-((2-Chloro-5-fluoro-4-(N-(pyrimidin-4-yl)sulfamoyl)phenyl)amino)-N,N-dimethyl-5-(3-(trifluoromethyl)phenyl)cyclohexanamine oxide], the IC50 at hNav1.7 [1] was determined as 11.8 nM; at hNav1.7 [2] it was 8.14 nM.
